Test results taken from patent US6949648B2, “Condensed pyrazole derivatives, process for producing the same and use thereof” (Takeda Pharmaceutical Company Limited, priority 2000, dated 2005).

Structure (SMILES)	melting point [°C]
Cc1nn(-c2ccccn2)c2ncc(C(=O)Nc3ccc(F)cc3)c(O)c12 [Example 1-14, N-(4-Fluorophenyl)-4-hydroxy-3-methyl-1-(2-pyridinyl)-1H-pyrazolo[3,4-b]pyridine-5-carboxamide]	> 300
Cc1nn(-c2ccccn2)c2nc3ccc(Br)cc3c(Cl)c12 [Example 2-86, 6-Bromo-4-chloro-3-methyl-1-(2-pyridinyl)-1H-pyrazolo[3,4-b]quinoline]	234 to 235
Cc1nn(-c2ccccn2)c2[nH]c3ccc(S(C)(=O)=O)cc3c(=O)c12 [Example 2-52, 3-Methyl-6-(methylsulfonyl)-1-(2-pyridinyl)-1,9-dihydro-4H-pyrazolo[3,4-b]quinolin-4-one]	> 300
Cc1nn(-c2ccccn2)c2[nH]c3ccc([N+](=O)[O-])cc3c(=O)c12 [Example 2-54, 3-Methyl-6-nitro-1-(2-pyridinyl)-1,9-dihydro-4H-pyrazolo[3,4-b]quinolin-4-one]	> 300
Cc1nn(-c2ccccn2)c2nc(O)c3c(c12)CCCCC3 [Example 1-30, 1-Methyl-3-(2-pyridinyl)-3,6,7,8,9,10-hexahydrocyclohepta[d]pyrazolo[3,4-b]pyridin-5-ol]	243 to 244
CC(C)c1nn(-c2ccccn2)c2nc3ccccc3c(Cl)c12 [Example 2-172, 4-Chloro-3-isopropyl-1-(2-pyridinyl)-1H-pyrazolo[3,4-b]quinoline]	146 to 148
Cc1nn(-c2ncccn2)c2[nH]c3ccccc3c(=O)c12 [Example 2-146, 3-Methyl-1-(2-pyrimidinyl)-1,9-dihydro-4H-pyrazolo[3,4-b]quinolin-4-one]	263 to 264
CCc1nn(-c2ccccn2)c2nc3ccccc3c(N)c12.Cl	249 to 252
Cc1cccnc1-n1nc(C)c2c(Cl)c3c(C)cccc3nc21 [Example 2-123, 4-Chloro-3,5-dimethyl-1-(3-methyl-2-pyridinyl)-1H-pyrazolo[3,4-b]quinoline]	176 to 178
FC(F)(F)c1nn(-c2ccccn2)c2nc3ccccc3c(Cl)c12 [Example 2-166, 4-Chloro-1-(2-pyridinyl)-3-trifluoromethyl-1H-pyrazolo[3,4-b]quinoline]	166 to 168
Cc1nn(-c2ccccn2)c2[nH]c3c(c(=O)c12)CCCC3 [Example 2-194, 3-Methyl-1-(2-pyridinyl)-1,5,6,7,8,9-hexahydro-4H-pyrazolo[3,4-b]quinolin-4-one]	172 to 173
Cc1nn(-c2ncccn2)c2nc3ccccc3c(N)c12.Cl	287 to 290
Cc1nn(-c2ccccn2)c2nc3c(F)cccc3c(Cl)c12 [Example 2-84, 4-Chloro-8-fluoro-3-methyl-1-(2-pyridinyl)-1H-pyrazolo[3,4-b]quinoline]	191
COc1c2ccccc2nc2c1c(C)nn2Cc1ccccn1 [Example 2-190, 4-Methoxy-3-methyl-1-(2-pyridinylmethyl)-1H-pyrazolo[3,4-b]quinoline]	111 to 113
Cc1nn(-c2ccccn2)c2nc3ccc([N+](=O)[O-])cc3c(Cl)c12 [Example 2-53, 4-Chloro-3-methyl-6-nitro-1-(2-pyridinyl)-1H-pyrazolo[3,4-b]quinoline]	282
O=C(O)c1nn(-c2ccccn2)c2[nH]c3ccccc3c(=O)c12 [Example 2-181, 4-Oxo-1-(2-pyridinyl)-4,9-dihydro-1H-pyrazolo[3,4-b]quinoline-3-carboxylic acid]	306 to 309
Cc1ccc2nc3c(c(C)nn3-c3ccccn3)c(N)c2c1.Cl	287 to 290
Cc1nn(-c2ccccn2)c2[nH]c3ccc(F)c(F)c3c(=O)c12 [Example 2-89, 5,6-Difluoro-3-methyl-1-(2-pyridinyl)-1,9-dihydro-4H-pyrazolo[3,4-b]quinolin-4-one]	300 to 303
COC(=O)Cc1nn(-c2ccccn2)c2nc3ccccc3c(Cl)c12 [Example 2-175, Methyl 2-[4-chloro-1-(2-pyridinyl)-1H-pyrazolo[3,4-b]quinolin-3-yl]acetate]	152 to 153
COc1cccc(-n2nc(C)c3c(Cl)c4cccc(C)c4nc32)n1 [Example 2-126, 4-Chloro-3,8-dimethyl-1-(6-methoxy-2-pyridinyl)-1H-pyrazolo[3,4-b]quinoline]	148 to 151
Cc1cc(C)nc(-n2nc(C)c3c(Cl)c4ccccc4nc32)n1 [Example 2-147, 4-Chloro-1-(4,6-dimethyl-2-pyrimidinyl)-3-methyl-1H-pyrazolo[3,4-b]quinoline]	191 to 192
Cc1nn(-c2ccccn2)c2[nH]c3cccc(Cl)c3c(=O)c12 [Example 2-69, 5-Chloro-3-methyl-1-(2-pyridinyl)-1,9-dihydro-4H-pyrazolo[3,4-b]quinolin-4-one]	212 to 213
COC(=O)Cc1nn(-c2ccccn2)c2[nH]c3ccccc3c(=O)c12 [Example 2-176, Methyl 2-[4-oxo-1-(2-pyridinyl)-4,9-dihydro-1H-pyrazolo[3,4-b]quinolin-3-yl]acetate]	240 to 241
Cc1nn(-c2ccccn2)c2[nH]c3ccc(Br)cc3c(=O)c12 [Example 2-87, 6-Bromo-3-methyl-1-(2-pyridinyl)-1,9-dihydro-4H-pyrazolo[3,4-b]quinolin-4-one]	240 to 242
Cc1nn(-c2ccccn2)c2[nH]c3cc(Cl)c(F)cc3c(=O)c12 [Example 2-97, 7-Chloro-6-fluoro-3-methyl-1-(2-pyridinyl)-1,9-dihydro-4H-pyrazolo[3,4-b]quinolin-4-one]	264 to 265

Other lines, results leading:

melting point [°C]	Structure (SMILES)
126 to 128	COc1c2ccccc2nc2c1c(C)nn2-c1cccnc1 [Example 2-139, 4-Methoxy-3-methyl-1-(3-pyridinyl)-1H-pyrazolo[3,4-b]quinoline]
301 to 302	Cc1cccc(-n2nc(C)c3c(=O)c4cc(F)c(F)cc4[nH]c32)n1 [Example 2-209, 6,7-Difluoro-3-methyl-1-(6-methyl-2-pyridinyl)-1,9-dihydro-4H-pyrazolo[3,4-b]quinolin-4-one]
213 to 215	CCOc1cccc(-n2nc(C)c3c(=O)c4c(C)cccc4[nH]c32)n1 [Example 2-122, 3,5-Dimethyl-1-(6-ethoxy-2-pyridinyl)-1,9-dihydro-4H-pyrazolo[3,4-b]quinolin-4-one]
97 to 99	CCCCNc1c2ccccc2nc2c1c(C)nn2-c1ccccn1 [Example 2-7, N-Butyl-N-[3-methyl-1-(2-pyridinyl)-1H-pyrazolo[3,4-b]quinolin-4-yl]amine]
167 to 169	Cc1cccc2nc3c(c(C)nn3-c3ccccn3)c(Cl)c12 [Example 2-29, 4-Chloro-3,5-dimethyl-1-(2-pyridinyl)-1H-pyrazolo[3,4-b]quinoline]
289 to 292	Cc1nn(-c2ccccn2)c2nc3ccc(Cl)cc3c(N)c12 [Example 2-71, 6-Chloro-3-methyl-1-(2-pyridinyl)-1H-pyrazolo[3,4-b]quinolin-4-ylamine]
260 to 262	Cc1nn(-c2ccccn2)c2[nH]c3ccc(N)cc3c(=O)c12 [Example 2-55, 6-Amino-3-methyl-1-(2-pyridinyl)-1,9-dihydro-4H-pyrazolo[3,4-b]quinolin-4-one]
211	Cc1nn(-c2ccccn2)c2nc3cc(F)c(Cl)cc3c(Cl)c12 [Example 2-98, 4,6-Dichloro-7-fluoro-3-methyl-1-(2-pyridinyl)-1H-pyrazolo[3,4-b]quinoline]
283 to 286	Cc1cccc2c(N)c3c(C)nn(-c4ccccn4)c3nc12.Cl
199 to 200	COC(=O)c1ccc2nc3c(c(C)nn3-c3ccccn3)c(Cl)c2c1 [Example 2-63, Methyl 4-chloro-3-methyl-1-(2-pyridinyl)-1H-pyrazolo[3,4-b]quinoline-6-carboxylate]
151 to 153	CCOc1cccc(-n2nc(C)c3c(Cl)c4cccc(C)c4nc32)n1 [Example 2-128, 4-Chloro-3,8-dimethyl-1-(6-ethoxy-2-pyridinyl)-1H-pyrazolo[3,4-b]quinoline]
173 to 176	Fc1cccc2nc3c(cnn3-c3ccccn3)c(Cl)c12 [Example 2-162, 4-Chloro-5-fluoro-1-(2-pyridinyl)-1H-pyrazolo[3,4-b]quinoline]
167 to 169	CC(C)Cc1nn(-c2ccccn2)c2[nH]c3ccccc3c(=O)c12 [Example 2-174, 3-Isobutyl-1-(2-pyridinyl)-1,9-dihydro-4H-pyrazolo[3,4-b]quinolin-4-one]
184 to 185	Cc1cccnc1-n1nc(C)c2c(=O)c3ccccc3[nH]c21 [Example 2-120, 3-Methyl-1-(3-methyl-2-pyridinyl)-1,9-dihydro-4H-pyrazolo[3,4-b]quinolin-4-one]
210 to 211	Cc1nn(-c2ccccn2)c2nc3ccccc3c(C#N)c12 [Example 2-107, 3-Methyl-1-(2-pyridinyl)-1H-pyrazolo[3,4-b]quinoline-4-carbonitrile]
230 to 231	Cc1nn(-c2ccccn2)c2nc3ccsc3c(Cl)c12 [Example 2-155, 4-Chloro-3-methyl-1-(2-pyridinyl)-1H-pyrazolo[3,4-b]thieno[2,3-e]pyridine]
121 to 122	CCCCCc1c2ccccc2nc2c1c(C)nn2-c1ccccn1 [Example 2-106, 3-Methyl-4-pentyl-1-(2-pyridinyl)-1H-pyrazolo[3,4-b]quinoline]
257 to 260	Cc1nn(-c2ncccn2)c2nc3ccccc3c(Cl)c12 [Example 2-144, 4-Chloro-3-methyl-1-(2-pyrimidinyl)-1H-pyrazolo[3,4-b]quinoline]
108 to 110	Cc1nn(-c2ccccn2)c2nccc(OCc3ccccc3)c12 [Example 1-32, 4-(Benzyloxy)-3-methyl-1-(2-pyridinyl)-1H-pyrazolo[3,4-b]pyridine]
226 to 228	Cc1nn(-c2ccncc2)c2nc3cc(F)c(F)cc3c(Cl)c12 [Example 2-204, 4-Chloro-6,7-difluoro-3-methyl-1-(4-pyridinyl)-1H-pyrazolo[3,4-b]quinoline]
